Tested on: Smn protein
Assay: Smn protein in tissues of neonatal Δ7 SMA mice
Type: in vivo
Settings: neonatal SMA Δ7 homozygous knockout mice, IP QD for 7 days (PND 3 to PND 9), brain, spinal cord, muscle, FIG. 12
Experimental: The tissue samples in Safe-Lock tubes are weighed and the volume of RIPA buffer containing the protease inhibitor cocktail is added based on the weight to volume ratios for each type of tissue: Brain (50 mgmL), Muscle (50 mgmL) and Spinal Cord (25 mgmL).
Tissues are homogenized using the TissueLyzer by bead milling. 5 mm stainless steel beads are added to the sample and shaken vigorously for 5 minutes at 30 Hz in the TissueLyzer. The samples are then centrifuged for 20 minutes at 14,000×g in a microcentrifuge and the homogenates transferred to the PCR plate. The homogenates are diluted in RIPA buffer to approximately 1 mgmL for HTRF and approximately 0.5 mgmL for total protein measurement using the BCA protein assay. […] Fluorescence for each well of the plate at 665 nm and 620 nm is measured on an EnVision multilabel plate reader (Perkin-Elmer). The total protein in the tissue homogenate is measured using the BCA assay according to the manufacturer's protocol.
The normalized fluorescence signal is calculated for each sample, Blank and vehicle control well by dividing the signal at 665 nm by the signal at 620 nm. Normalizing the signal accounts for possible fluorescence quenching due to the matrix effect of the tissue homogenate. […] The ΔF value for each tissue sample well is divided by the total protein quantity (determined using the BCA assay) for that tissue sample. […]

Cc1cn2cc(-c3cc4ccc(N5CCN(C)CC5)cc4c(=O)o3)nc2c(C)n1 [Cpd 65, 3-(6,8-dimethylimidazo[1,2-a]pyrazin-2-yl)-7-(4-methylpiperazin-1-yl)-1H-isochromen-1-one]
total protein normalized Smn level in tissues: dose dependently increased

Source: patent US9399649B2, “Compounds for treating spinal muscular atrophy” (PTC Therapeutics Inc., priority 2012, dated 2016)
